The values below come from ChEMBL document CHEMBL1139752, “New rifabutin analogs: synthesis and biological activity against Mycobacterium tuberculosis” (2006).

Molecules are shown by their SMILES. ≈ marks a conversion by molar mass, not a printed value. Some results are limits rather than exact numbers.

Broadly, the MIC is the lowest concentration that inhibits growth of the organism.

Type in all cases: functional
The subject of assay [1] is Mycobacterium tuberculosis. As to the kind of experiment: Antimycobacterial activity against rifampicin and rifabutin resistant Mycobacterium tuberculosis.
In assay [2] the test system is Mycobacterium tuberculosis. The assay can be described thus: Antimycobacterial activity against rifampicin and rifabutin resistant Mycobacterium tuberculosis ATCC 35838.
Assay [3] has as its system Mycobacterium tuberculosis. The assay can be described thus: Antimycobacterial activity against streptomycin resistant Mycobacterium tuberculosis ATCC 35820.
The test system of assay [4] is Mycobacterium tuberculosis. The assay can be described thus: Antimycobacterial activity against ethambutol resistant Mycobacterium tuberculosis ATCC 35837.
In assay [5] the test system is Mycobacterium tuberculosis. As to the kind of experiment: Antimycobacterial activity against isoniazid resistant Mycobacterium tuberculosis ATCC 35822.

For the compound `C=CCCN1[C@@H](c2ccccc2)C[C@@]2(C[C@H]1c1ccccc1)N=C1C(=C3NC(=O)/C(C)=C\C=C\[C@H](C)[C@H](O)[C@@H](C)[C@H](O)[C@H](C)[C@H](OC(C)=O)[C@H](C)[C@@H](OC)/C=C/O[C@@]4(C)Oc5c(C)c(O)c(c1c5C4=O)C3=O)N2`, the MIC was over 1 µg/mL in assay [1]; over 1 µg/mL in assay [2]; 0.02 µg/mL (≈ 0.0201 µM) in assay [3]; 0.02 µg/mL (≈ 0.0201 µM) in assay [4]; 0.02 µg/mL (≈ 0.0201 µM) in assay [5].

With `CO[C@H]1/C=C/O[C@@]2(C)Oc3c(C)c(O)c4c(O)c(c(/C=N/N5CCN(C)CC5)c(O)c4c3C2=O)NC(=O)/C(C)=C\C=C\[C@H](C)[C@H](O)[C@@H](C)[C@@H](O)[C@@H](C)[C@H](OC(C)=O)[C@@H]1C` [RIFAMPIN], the minimum inhibitory concentration (MIC) in assay [1] is over 5 µg/mL; in assay [2] it was over 5 µg/mL; in assay [3], 0.02 µg/mL (≈ 0.0243 µM); in assay [4] it was 0.02 µg/mL (≈ 0.0243 µM); in assay [5], 0.02 µg/mL (≈ 0.0243 µM).

As for `CO[C@H]1/C=C/O[C@@]2(C)Oc3c(C)c(O)c4c(c3C2=O)C2=N[C@]3(C[C@@H](c5ccccc5)N[C@@H](c5ccccc5)C3)NC2=C(NC(=O)/C(C)=C\C=C\[C@H](C)[C@H](O)[C@@H](C)[C@H](O)[C@H](C)[C@H](OC(C)=O)[C@@H]1C)C4=O`, the MIC in assay [1] was over 1 µg/mL; in assay [2], 1 µg/mL (≈ 1.06 µM); in assay [3], 0.02 µg/mL (≈ 0.0212 µM); in assay [4], 0.02 µg/mL (≈ 0.0212 µM); in assay [5], 0.02 µg/mL (≈ 0.0212 µM).

Regarding `CO[C@H]1/C=C/O[C@@]2(C)Oc3c(C)c(O)c4c(c3C2=O)C2=NC3(CCN(CC(C)C)CC3)NC2=C(NC(=O)/C(C)=C\C=C\[C@H](C)[C@H](O)[C@@H](C)[C@@H](O)[C@@H](C)[C@H](OC(C)=O)[C@@H]1C)C4=O` [RIFABUTIN], the minimum inhibitory concentration (MIC) in assay [1] is over 5 µg/mL; in assay [2], over 5 µg/mL; in assay [3] it was 0.02 µg/mL (≈ 0.0236 µM); in assay [4] it was 0.02 µg/mL (≈ 0.0236 µM); in assay [5], 0.02 µg/mL (≈ 0.0236 µM).

Take `CO[C@H]1/C=C/O[C@@]2(C)Oc3c(C)c(O)c4c(c3C2=O)C2=N[C@@]3(C[C@@H](c5ccc(F)cc5)N[C@@H](c5ccc(F)cc5)C3)NC2=C(NC(=O)/C(C)=C\C=C\[C@H](C)[C@H](O)[C@@H](C)[C@H](O)[C@H](C)[C@H](OC(C)=O)[C@@H]1C)C4=O`: the minimum inhibitory concentration (MIC) in assay [1] was found to be 0.3 µg/mL (≈ 0.306 µM); in assay [2] it was 0.5 µg/mL (≈ 0.511 µM); in assay [3], 0.02 µg/mL (≈ 0.0204 µM); in assay [4], 0.02 µg/mL (≈ 0.0204 µM); in assay [5], 0.02 µg/mL (≈ 0.0204 µM).

Regarding `CCCCN1[C@@H](c2ccccc2)C[C@@]2(C[C@H]1c1ccccc1)N=C1C(=C3NC(=O)/C(C)=C\C=C\[C@H](C)[C@H](O)[C@@H](C)[C@H](O)[C@H](C)[C@H](OC(C)=O)[C@H](C)[C@@H](OC)/C=C/O[C@@]4(C)Oc5c(C)c(O)c(c1c5C4=O)C3=O)N2`, the MIC in assay [1] is over 1 µg/mL; in assay [2] it was 1 µg/mL (≈ 1 µM); in assay [3] it was 0.02 µg/mL (≈ 0.02 µM); in assay [4], 0.02 µg/mL (≈ 0.02 µM); in assay [5], 0.02 µg/mL (≈ 0.02 µM).

As for `COc1ccc([C@@H]2C[C@]3(C[C@H](c4ccc(OC)cc4)N2)N=C2C(=C4NC(=O)/C(C)=C\C=C\[C@H](C)[C@H](O)[C@@H](C)[C@H](O)[C@H](C)[C@H](OC(C)=O)[C@H](C)[C@@H](OC)/C=C/O[C@@]5(C)Oc6c(C)c(O)c(c2c6C5=O)C4=O)N3)cc1`, the MIC in assay [1] is over 1 µg/mL; in assay [2], 1 µg/mL (≈ 0.997 µM); in assay [3] it was 0.02 µg/mL (≈ 0.0199 µM); in assay [4], 0.02 µg/mL (≈ 0.0199 µM); in assay [5], 0.02 µg/mL (≈ 0.0199 µM).

With `CO[C@H]1/C=C/O[C@@]2(C)Oc3c(C)c(O)c4c(c3C2=O)C2=N[C@@]3(C[C@@H](c5ccccc5)N[C@@H](c5ccccc5)C3)NC2=C(NC(=O)/C(C)=C\C=C\[C@H](C)[C@H](O)[C@@H](C)[C@H](O)[C@H](C)[C@H](OC(C)=O)[C@@H]1C)C4=O`, the minimal inhibitory concentration (MIC) in assay [1] was 0.3 µg/mL (≈ 0.318 µM); in assay [2], 0.5 µg/mL (≈ 0.53 µM); in assay [3], 0.02 µg/mL (≈ 0.0212 µM); in assay [4], 0.02 µg/mL (≈ 0.0212 µM); in assay [5], 0.02 µg/mL (≈ 0.0212 µM).

Take `C=CCN1[C@@H](c2ccccc2)C[C@@]2(C[C@H]1c1ccccc1)N=C1C(=C3NC(=O)/C(C)=C\C=C\[C@H](C)[C@H](O)[C@@H](C)[C@H](O)[C@H](C)[C@H](OC(C)=O)[C@H](C)[C@@H](OC)/C=C/O[C@@]4(C)Oc5c(C)c(O)c(c1c5C4=O)C3=O)N2`: the MIC in assay [1] was over 1 µg/mL; in assay [2], over 1 µg/mL; in assay [3], 0.02 µg/mL (≈ 0.0203 µM); in assay [4], 0.02 µg/mL (≈ 0.0203 µM); in assay [5], 0.02 µg/mL (≈ 0.0203 µM).
